{"source": "patent US4240957A", "about": "“Dipeptide derivatives and their production” (Shionogi & Co., Ltd., priority 1974, dated 1980)", "type_in_all_cases": "in vivo", "key": {"[1]": {"test_system": "DS male mice", "experiment": "Taming activity (inhibition of electroshock-induced fighting)", "settings": "for Taming activity ED50: administered 60 minutes prior, inhibition of fighting responses, 5 pairs of mice; for times more potent than diazepam in taming activity: relative to diazepam (Compound No. 5)", "procedure": "This test was measured on DS male mice. […] These pairs of mice were selected in the morning and used for drug test in the afternoon. The test compound was administered to both mice of the pairs 60 minutes prior to the experiment. Results were obtained as the mean percentage of inhibition of fighting responses in a group of 5 pairs and shown by ED50 [Tedeschi, et al.: J. Pharmacol Exp. Thev., 125, 28-34 (1959)]."}, "[2]": {"test_system": "DS male mice", "experiment": "Rotarod performance activity", "settings": "fall from rod within less than 2 minutes; 10 mice per dose", "procedure": "(3) Rotarod performance activity:\nThis test was measured on DS male mice. The mouse was put on a scraped rod of wood, 3 cm in diameter, turning at the rate of five rotations per minute. The mice that could remain on the rod for three or more minutes in successive trials were selected and placed in a group of 10 mice for each dose. If the mouse fell down from the rod within less than 2 minutes, the test compound was considered to be effective. Results were shown by ED50 [Dunham, et al.: J. Am. Pharm. Assoc., 46, 208 (1957)]."}, "[3]": {"test_system": "DS male mice", "experiment": "Anti-pentylenetetrazole activity", "settings": "for Anti-pentylenetetrazol activity, ED50: given orally 60 minutes prior to pentylenetetrazol 125 mg/kg s.c., complete protection against mortality, observed two hours; for times more potent than diazepam in anti-pentylenetetrazol activity: relative to diazepam (Compound No. 5)", "from_the_text": "(1) Anti-pentylenetetrazole activity:\nThe convulsions were disregarded."}, "[4]": {"settings": "relative to chlordiazepoxide (Compound No. 4)"}}}
{"smiles": "CN(C(=O)CNC(=O)CN)c1ccc(Cl)cc1C(=O)c1ccccc1F.Cl", "note": "[Compound No. 3, 2-o-fluorobenzoyl-4-chloro-N-methyl-N^α -glycyl-glycinanilide hydrochloride]", "values": [{"measurement": "Taming activity ED50", "setting": "[1]", "value": 1.6, "unit": "mg/kg"}, {"measurement": "times more potent than diazepam in taming activity", "setting": "[1]", "value": "2 to 4", "unit": "times"}, {"measurement": "Rotarod performance ED50", "setting": "[2]", "value": 17.0, "unit": "mg/kg"}, {"measurement": "Anti-pentylenetetrazol activity, ED50", "setting": "[3]", "value": 0.33, "unit": "mg/kg"}, {"measurement": "times more potent than diazepam in anti-pentylenetetrazol activity", "setting": "[3]", "value": "2 to 4", "unit": "times"}]}
{"smiles": "CN(C(=O)CNC(=O)CN)c1ccc(Cl)cc1C(=O)c1ccccc1Cl.O", "note": "[Compound No. 2, 2-o-chlorobenzoyl-4-chloro-N-methyl-N^α -glycyl-glycinanilide hydrate]", "values": [{"measurement": "Taming activity ED50", "setting": "[1]", "value": 3.0, "unit": "mg/kg"}, {"measurement": "times more potent than diazepam in taming activity", "setting": "[1]", "value": "2 to 4", "unit": "times"}, {"measurement": "Anti-pentylenetetrazol activity, ED50", "setting": "[3]", "value": 0.58, "unit": "mg/kg"}, {"measurement": "times more potent than diazepam in anti-pentylenetetrazol activity", "setting": "[3]", "value": "2 to 4", "unit": "times"}]}
{"smiles": "CN(C(=O)CNC(=O)CN)c1ccc(Cl)cc1C(=O)c1ccccc1", "note": "[Compound No. 1, 2-benzoyl-4-chloro-N-methyl-N^α -glycyl-glycinanilide]", "values": [{"measurement": "times more potent than chlordiazepoxide in taming activity", "setting": "[1]; [4]", "value": "2 to 3", "unit": "times"}, {"measurement": "Anti-pentylenetetrazol activity, ED50", "setting": "[3]", "value": 1.0, "unit": "mg/kg"}, {"measurement": "times more potent than chlordiazepoxide in anti-pentylenetetrazol activity", "setting": "[3]; [4]", "value": "2 to 3", "unit": "times"}]}
